Measured values from US8609651B2, “Pharmaceutical compositions of benzodiazepines and method of use thereof” (Jazz Pharmaceuticals, Inc., priority 2006, dated 2013).
Values after ≈ are worked out from the molar mass of the structure shown.

What was measured:
[1] = qEEG mapping in volunteers; type: in vivo; conditions: human, oral
[2] = Human pharmacokinetic study (oral, intravenous, intranasal cross-over); conditions: 1 mg; for AUC / Cmax / Tmax / bioavailability: male, plasma; for bioavailability: other: intranasal, intranasal 1 mg
Protocol: The human pharmacokinetics, safety, and tolerability of the benzodiazepines compositions of the present invention formulated for intranasal delivery for therapeutic applications are evaluated using standard clinical procedures. Benzodiazepine compositions formulated for intranasal delivery are provided, for example, for application by the participants to intranasal mucosa.
A primary objective of initial studies in humans is to determine and compare pharmacokinetic profiles of three dosage forms of a benzodiazepine: oral, i.v., and intranasal, following single administration. An example of such a study in humans is a cross-over study performed in 12 healthy male volunteers. Plasma and urine level of clonazepam and 7-amino-clonazepam are determined, for example, using HPLC and UV detection. […] Further the initial studies in humans are used to determine local tolerability of intranasal formulation using questionnaire and the Visual Analog Scale (VAS). VAS is a validated instrument that has been used in numerous studies to quantify subjective […]. In addition, cognitive, sleepiness and mood effects are evaluated using questionnaires and scales (see, e.g., Example 10 below). Further, attention and vigilance may be evaluated using, for example, LEEDS Psychomotor Multiple Choice Reaction Time (MCRT) testing.
A human pharmacokinetic study was carried out as described in Example 8.
15 young, healthy male volunteers received a single dose of 1 mg clonazepam by oral, intravenous and intranasal routes in a three-period cross-over design.

[3] = Solubility of benzodiazepines in DEGEE (Transcutol) at 25° C. and −16° C.; conditions: organic solvent or mixture, thermodynamic from solid
Protocol: The solubilities of several other benzodiazepines were measured in DEGEE (diethylene glycol monoethyl ether, transcutol) by the techniques of Example 1. Initially, 10 mg of the drug was loaded in the glass vial and 130-μL of DEGEE was added, and the samples were sonicated for 10 minutes. […] Samples were stored at −16° C. and 25° C. overnight, and centrifuged (5000 rpm, 2 minutes, −10° C. and 23° C. for the −16° C. and 25° C. samples, respectively). […] Clonazepam was measured by UV at 350 nm; all others at 300 nm.

[4] = Psychomotor, cognitive and subjective tests in volunteers; type: in vivo; conditions: human
[5] = Human safety and tolerability (side effects); type: in vivo
Excerpt: Somnolence was reported by 10 of 15 (approximately 67%) subjects after intranasal dosing and 13 of 15 (approximately 87%) subjects after oral dosing. Approximately 93% of the subjects reported somnolence or sedation ( 11/15 for somnolence and 3/15 for sedation) after intravenous dosing. Nasal discomfort was reported by 12 of 15 subjects (approximately 80%) after intranasal dosing.

[6] = Solubility of clonazepam in binary solvent mixtures; conditions: triacetin/glycofurol 50:50 mixture, 25 °C, organic solvent or mixture, thermodynamic from solid
Protocol: Further, the solubility of clonazepam in binary mixtures of Transcutol® (TC), triacetin (TA), glycofurol (GF) and propylene glycol (PG) was evaluated. Solubility limits of clonazepam were determined for the following formulations:
Excess drug (50 mg) was capped with about 500 μL of the solvent matrix in a 1.5 mL microfuge tube and the solution was mixed on a vortex shaker for several minutes. Thereafter, the solution was placed in an ultrasonic bath at 25° C. for 45 minutes. The temperature was regulated with a thermometer and controlled by adding ice into the bath. After 15 minutes of standing, the solutions were centrifuged at 3,000×g for 30 minutes. Solutions were then stored for 16 hours at 25° C. in an ICH cabinet protected from light.

[7] = Solubilities of clonazepam in glycol ethers at 3 temperatures; conditions: neat solvent, organic solvent or mixture, thermodynamic from solid
Protocol: The vials were then centrifuged at −5° C. and 5° C. for the −15° C. and 5° C. samples, respectively, at 5000 rpm for 2 minutes.

[8] = Saturated solubility in receiver fluid systems (HPLC); conditions: 37 °C, thermodynamic from solid
Protocol: Following the stability studies, a suitable receiver fluid was developed in order to ensure that sink conditions for tested drug were such that the drug release was limited by the solubility of the drug in the receiver fluid. […] Briefly, drug was saturated into different receiver fluid systems by adding excess drug and allowed to stir with a magnetic flea over a period of 2 h at 37° C. Each saturated solution was then filtered using a 0.2 μm syringe filter and the resultant solution was assayed via HPLC.
Calibration curves for clonazepam were constructed between 0.2 to 10 μg/mL with appropriate replicates to ensure repeatability and linearity.
Standards were prepared in receiver fluid (10% ethanol in buffer 6). […] The filtration at room temperature was performed as quickly as possible to minimize any drug precipitation as the temperature dropped from 37° C. during filtration.

[9] = Solubility of clonazepam in neat solvents
Protocol: The solubility of clonazepam in a number of neat solvents was determined using standard methods.

In the case of `O=C1CN=C(c2ccccc2Cl)c2cc([N+](=O)[O-])ccc2N1` [Clonazepam, 5-(2-chlorophenyl)-1,3-dihydro-7-nitro-2H-1,4-benzodiazepin-2-one], the “time after dosing at which EEG pattern (increased delta and beta, decreased alpha and theta) was noted” value [1] is reported as “approximately 2 hours”, the “Cmax of the intranasal route as % of the intravenous route” value [2] is reported as 17% and the “Cmax of the intranasal route as % of the oral route” value [2] is reported as 93%. For the same compound, the AUC ([2]; inhaled or intranasal) was ~58 ng·h/mL, the Cmax ([2]; inhaled or intranasal) was 7.12 ± 3.81 ng/mL and the Tmax ([2]; inhaled or intranasal) was 12 min. The Tmax ([2]; intravenous) was 6 min, the AUC ([2]; iv) was ~106 ng·h/mL and the Cmax ([2]; iv) was 42.5 ± 10.8 ng/mL. It also gave a bioavailability ([2]; bioavailability relative to intravenous) of 55%, a bioavailability ([2]; bioavailability relative to oral) of 61% and an AUC ([2]; po) of ~95 ng·h/mL. The Cmax ([2]; po) was 7.64 ± 1.74 ng/mL, the Tmax ([2]; po) was 120 min and the solubility ([3]; 25 °C) was 38.9 mg/mL (≈ 123 mM). For the same compound, the solubility ([3]; -16 °C) was 35.3 mg/mL (≈ 112 mM), the “time at which psychomotor and subjective effects were first apparent” value ([4]; intranasal) was “approximately 30 minutes” and the “time at which psychomotor and subjective effects were first apparent” value ([4]; intravenous) was “approximately 30 minutes”. For the same compound, the “time at which psychomotor and subjective effects were first apparent” value ([4]; oral) was “approximately 2 hours”, the subjects reporting somnolence ([5]; after intranasal dosing, 10 of 15) was “approximately 67%” and the “subjects reporting nasal discomfort” value ([5]; after intranasal dosing, 12 of 15) was “approximately 80%”. The “subjects reporting somnolence or sedation” value ([5]; after intravenous dosing) was “Approximately 93%”, the subjects with sedation ([5]; after intravenous dosing) was 3/15 and the subjects with somnolence ([5]; after intravenous dosing) was 11/15. For the same compound, the subjects reporting somnolence ([5]; after oral dosing, 13 of 15) was “approximately 87%”, the “changes in laboratory parameters” value ([5]; human) was “no clinically relevant changes” and the “Somnolence reported in the study” value ([5]; human, all routes) was 75.6%. For the same compound, the “nasal discomfort reported in the study” value ([5]; human, all routes) was 26.7%, the solubility at 16 h [6] was ~36.4 mg/mL (≈ 115 mM) and the solubility ([7]; 1,2-dimethyxoethane, 5 °C) was 35.7 mg/mL (≈ 113 mM). It also gave a solubility ([7]; 1,2-dimethyxoethane, 25 °C) of 39.3 mg/mL (≈ 124 mM), a solubility ([7]; 1,2-dimethyxoethane, -15 °C) of 35.2 mg/mL (≈ 111 mM) and a solubility ([7]; di(ethylene glycol) diethyl ether, 5 °C) of 18.5 mg/mL (≈ 58.6 mM). It also gave a solubility ([7]; di(ethylene glycol) diethyl ether, 25 °C) of 19 mg/mL (≈ 60.2 mM), a solubility ([7]; di(ethylene glycol) diethyl ether, -15 °C) of 19.5 mg/mL (≈ 61.8 mM) and a solubility ([7]; di(ethylene glycol) methyl ether, 5 °C) of 53.9 mg/mL (≈ 171 mM). The solubility ([7]; di(ethylene glycol) methyl ether, 25 °C) was 56.4 mg/mL (≈ 179 mM), the solubility ([7]; di(ethylene glycol) methyl ether, -15 °C) was 58.1 mg/mL (≈ 184 mM) and the solubility ([7]; diethylene glycol monoethyl ether (DEGEE), 25 °C) was 41.8 mg/mL (≈ 132 mM). It also gave a solubility ([7]; diethylene glycol monoethyl ether, 5 °C) of 37.7 mg/mL (≈ 119 mM), a solubility ([7]; diethylene glycol monoethyl ether, -15 °C) of 43.3 mg/mL (≈ 137 mM) and a solubility at 2 h ([8]; pH 6, aqueous buffer, buffer pH 6, 37° C.) of 13.7 µg/mL (≈ 0.0433 mM). For the same compound, the solubility at 2 h ([8]; pH 6, aqueous with cosolvent or surfactant or cyclodextrin, 20% ethanol in buffer pH6, 37° C.) was 82.3 µg/mL (≈ 0.261 mM), the solubility at 2 h ([8]; pH 6, aqueous with cosolvent or surfactant or cyclodextrin, receiver solution, 10% ethanol in buffer pH 6, 37° C.) was 29.3 µg/mL (≈ 0.0929 mM) and the solubility ([9]; PEG 200 (neat solvent), organic solvent or mixture) was 30.3 mg/mL (≈ 96 mM). For the same compound, the solubility ([9]; PEG 300 (neat solvent), organic solvent or mixture) was 37 mg/mL (≈ 117 mM), the solubility ([9]; Transcutol (neat solvent), organic solvent or mixture) was 38.7 mg/mL (≈ 123 mM) and the solubility ([9]; glycofurol (neat solvent), organic solvent or mixture) was 67.3 mg/mL (≈ 213 mM). For the same compound, the solubility ([9]; propylene glycol (neat solvent), organic solvent or mixture) was 3.4 mg/mL (≈ 10.8 mM), the solubility ([9]; triacetin (neat solvent), organic solvent or mixture) was 5.8 mg/mL (≈ 18.4 mM) and the solubility ([9]; water) was < 0.1 mg/mL.
